Source: US10822349B2, “Macrocyclic purines for the treatment of viral infections” (JANSSEN SCIENCES IRELAND UNLIMITED COMPANY, priority 2012, dated 2020)

Experiments:
human TLR7 = molecular target: T1, human TLR7 (Homo sapiens, UniProt Q9NYK1); assay: TLR7 cellular reporter assay (HEK293 TLR7-NFκB-luc); assay type: cell-based; conditions: lowest effective concentration; HEK293 transiently transfected with TLR7 and NFκB-luc; 6 hours incubation
T1 construct: expressed in transfected cells; host or cells: HEK293
T1 sequence (Q9NYK1 27-1049): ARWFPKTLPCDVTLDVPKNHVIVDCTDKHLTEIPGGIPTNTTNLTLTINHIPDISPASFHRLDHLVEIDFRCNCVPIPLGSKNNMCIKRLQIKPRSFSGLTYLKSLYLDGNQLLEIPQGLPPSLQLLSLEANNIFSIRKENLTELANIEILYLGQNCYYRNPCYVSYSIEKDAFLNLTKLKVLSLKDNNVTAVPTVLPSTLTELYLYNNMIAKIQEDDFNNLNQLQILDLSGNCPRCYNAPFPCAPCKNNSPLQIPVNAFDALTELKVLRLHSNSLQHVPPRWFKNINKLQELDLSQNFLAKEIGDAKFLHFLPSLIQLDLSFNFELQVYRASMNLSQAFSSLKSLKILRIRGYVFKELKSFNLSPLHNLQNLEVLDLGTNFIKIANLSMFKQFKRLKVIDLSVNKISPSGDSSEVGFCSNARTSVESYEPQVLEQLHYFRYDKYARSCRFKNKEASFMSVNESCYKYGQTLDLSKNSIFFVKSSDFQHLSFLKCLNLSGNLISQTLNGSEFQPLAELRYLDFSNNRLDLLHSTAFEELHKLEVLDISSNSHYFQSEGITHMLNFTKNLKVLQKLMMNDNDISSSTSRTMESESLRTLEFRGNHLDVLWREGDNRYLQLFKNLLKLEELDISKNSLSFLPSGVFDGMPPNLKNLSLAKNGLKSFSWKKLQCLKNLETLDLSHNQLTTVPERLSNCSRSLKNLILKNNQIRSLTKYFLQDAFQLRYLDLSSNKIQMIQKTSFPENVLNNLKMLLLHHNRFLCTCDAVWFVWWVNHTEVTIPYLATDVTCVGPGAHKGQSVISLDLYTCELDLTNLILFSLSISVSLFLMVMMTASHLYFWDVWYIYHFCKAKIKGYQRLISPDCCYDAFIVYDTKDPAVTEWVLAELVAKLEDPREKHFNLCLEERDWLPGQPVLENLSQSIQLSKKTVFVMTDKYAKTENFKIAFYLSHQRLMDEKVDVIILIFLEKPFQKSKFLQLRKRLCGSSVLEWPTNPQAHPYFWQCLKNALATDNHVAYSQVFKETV
Experimental: The ability of compounds to activate human TLR7 and TLR8 was assessed in a cellular reporter assay using HEK293 cells transiently transfected with a TLR7 or TLR8 expression vector and NFκB-luc reporter construct. Briefly, HEK293 cells were grown in culture medium (DMEM supplemented with 10% FCS and 2 mM Glutamine). For transfection of cells in 10 cm dishes, cells were detached with Trypsin-EDTA, transfected with a mix of CMV-TLR7 or TLR8 plasmid (750 ng), NFκB-luc plasmid (375 ng) and a transfection reagent and incubated 48 hours at 37° C. in a humidified 5% CO2 atmosphere. Transfected cells were then detached with Trypsin-EDTA, washed in PBS and resuspended in medium to a density of 1.67×10^5 cells/mL. Thirty microliters of cells were then dispensed into each well in 384-well plates, where 10 μL of compound in 4% DMSO was already present. Following 6 hours incubation at 37° C., 5% CO2, the luciferase activity was determined by adding 15 μl of Steady Lite Plus substrate (Perkin Elmer) to each well and readout performed on a ViewLux ultraHTS microplate imager (Perkin Elmer). Dose response curves were generated from measurements performed in quadruplicates. Lowest effective concentrations (LEC) values, defined as the concentration that induces an effect which is at least two fold above the standard deviation of the assay, were determined for each compound.

[1] = tested on: interferon production in human PBMC; assay: Interferon production in human PBMC, read out on HEK-ISRE-luc reporter cells; assay type: cell-based; conditions: lowest effective concentration, PBMC supernatant after overnight incubation transferred to HEK-ISRE-luc cells; for minimal effective concentration: Homo sapiens, PBMC, 24 h, read-out: PBMC HEK-ISRE-luc (LEC; μM)
Experimental: Activation of human TLR7 results in robust production of interferon by plasmacytoid dendritic cells present in human blood. The potential of compounds to induce interferon was evaluated by determination of interferon in the conditioned media from peripheral blood mononuclear cells (PBMC). The presence of interferon in the samples was determined, using an interferon reporter cell line stably expressing an interferon-stimulated responsive elements (ISRE)-luc reporter construct. The ISRE element with sequence GAAACTGAAACT (SEQ ID: 1) is highly responsive to the STAT1-STAT2-IRF9 transcription factor, which becomes activated upon binding of IFN-I to the IFN receptor. Briefly, PBMCs were prepared from buffy coats of at least two donors using a standard Ficoll centrifugation protocol. Isolated PBMCs were resuspended in RPMI medium supplemented with 10% human AB serum and 2×10^5 cells/well were dispensed into 384-well plates containing compounds (70 μL total volume). After overnight incubation of the PBMCs with the compounds, 10 μL of supernatant was transferred to 384-well plates containing 5×10^3 HEK-ISRE-luc cells/well in 30 μL (plated the day before). Following 24 hours of incubation, activation of the ISRE elements was measured by assaying luciferase activity using 40 μL/well Steady Lite Plus substrate (Perkin Elmer) and measured with ViewLux ultraHTS microplate imager (Perkin Elmer). The stimulating activity of each compound on the HEK-ISRE-luc cells was reported as LEC. The LEC in turn indicates the degree of ISRE activation on transfer of a defined amount of PBMC culture medium. Recombinant interferon alfa-2a (Roferon-A) was used as a standard control compound.

SMILES	HEK293 TLR7-NFκB-luc (LEC; μM) (human TLR7)	minimal effective concentration [1]	PBMC HEK-ISRE-luc (LEC; μM) ([1]; 24 hours)
Nc1nc2nc3c1nc(O)n3Cc1cccc(c1)OC/C=C\CCO2 [Compound 26]	0.027 µM	0.093 µM	
Nc1nc2nc3c1nc(O)n3Cc1cccc(c1)CCCCCCn1ccnc1-2 [Compound 4]	3.27 µM	0.64 µM	
COc1ccc2cc1Cn1c(O)nc3c(N)nc(nc31)OCCCCO2 [Compound 70]	0.15 µM	0.04 µM	
Nc1nc2nc3c1nc(O)n3Cc1cccc(c1)OCCCCCO2 [Compound 38]	0.53 µM	0.027 µM	
Nc1nc2nc3c1nc(O)n3Cc1ncccc1OC/C=C\CCO2 [Compound 45]	0.108 µM	0.01 µM	
COc1cc2cc(c1)OC/C=C\COc1nc(N)c3nc(O)n(c3n1)C2 [Compound 65]	0.038 µM	0.03 µM	
Nc1nc2nc3c1nc(O)n3Cc1ccc(F)c(c1)OC/C=C/CO2 [Compound 87]	0.034 µM		
Nc1nc2nc3c1nc(O)n3Cc1cccc(c1)OCC/C=C/CO2 [Compound 21]	0.3 µM	0.05 µM	
Nc1nc2nc3c1nc(O)n3CCc1cccc(c1)OC/C=C\CO2 [Compound 84]	3.4 µM	0.51 µM	
Nc1nc2nc3c1nc(O)n3Cc1cccc(c1)CCCCCO2 [Compound 2]	0.51 µM	0.22 µM	
COc1ccc2cc1OC/C=C\COc1nc(N)c3nc(O)n(c3n1)C2 [Compound 60]	0.088 µM		0.033 µM
Nc1nc2nc3c1nc(O)n3Cc1cccc(c1)C/C=C/CCO2 [Compound 15]	0.12 µM	0.016 µM	
Nc1nc2nc3c1nc(O)n3Cc1cccc(c1)C/C=C/CCCN2 [Compound 28]	0.77 µM	0.26 µM	
Nc1nc2nc3c1ncn3Cc1cccc(c1)OC/C=C\CO2 [Compound 55]	>25 µM	15.3 µM	
Nc1nc2nc3c1nc(O)n3Cc1cccc(c1)C/C=C/CCCCO2 [Compound 34]	9.81 µM	0.032 µM	
Nc1nc2nc3c1nc(O)n3Cc1cccc(c1)OCCCCO2 [Compound 11]	0.050 µM	0.022 µM	
COc1cc2cc(c1)OCCCCOc1nc(N)c3nc(O)n(c3n1)C2 [Compound 53]	0.029 µM	0.01 µM	
Nc1nc2nc3c1nc(O)n3Cc1ccc(nc1)OCC/C=C/CCO2 [Compound 25]	20.22 µM	3.61 µM	
COc1ccc2cc1OC/C=C\COc1nc(N)c3nc(O)n(c3n1)C2 [Compound 57]	0.08 µM	0.021 µM	
Nc1nc2nc3c1ncn3Cc1cccc(c1)C/C=C\CCO2 [Compound 52]	7.96 µM	4.8 µM	
COc1ccc2cc1Cn1c(O)nc3c(N)nc(nc31)OC/C=C/CO2 [Compound 63]	0.12 µM	0.031 µM	

SMILES	HEK293 TLR7-NFκB-luc (LEC; μM) (human TLR7)	minimal effective concentration [1]	PBMC HEK-ISRE-luc (LEC; μM) ([1]; 24 hours)
Nc1nc2nc3c1nc(O)n3Cc1ccccc1OC/C=C\CO2 [Compound 77]	0.53 µM	0.1 µM	
Nc1nc2nc3c1nc(O)n3Cc1ccc(F)c(c1)OCCCCN2 [Compound 92]	0.47 µM		
Nc1nc2nc3c1nc(O)n3Cc1cccc(n1)COCCCCO2 [Compound 24]	1.05 µM	0.15 µM	
Nc1nc2nc3c1nc(O)n3CCc1cccc(c1)OC/C=C/CO2 [Compound 32]	0.92 µM	0.12 µM	
Nc1nc2nc3c1nc(O)n3Cc1cccc(c1)OC/C=C/CCO2 [Compound 27]	1.31 µM	0.11 µM	
Nc1nc2nc3c1nc(O)n3Cc1ccc(F)c(c1)OC/C=C\CO2 [Compound 88]	0.11 µM		
Nc1nc2nc3c1nc(O)n3CCc1cccc(c1)CCCCCO2 [Compound 83]	>25 µM	2.66 µM	
Nc1nc2nc3c1nc(O)n3Cc1cccc(c1)OC/C=C/CCCO2 [Compound 33]	0.17 µM	0.11 µM	
Nc1nc2nc3c1nc(O)n3Cc1cccc(c1)CC(=O)NCCCO2 [Compound 5]	0.24 µM	0.044 µM	
Nc1nc2nc3c1nc(O)n3Cc1cccc(c1)OC/C=C\CO2 [Compound 22]	0.12 µM	0.054 µM	
Nc1nc2nc3c1nc(O)n3Cc1cccc(c1)OCCOCCO2 [Compound 12]	0.39 µM	0.043 µM	
Nc1nc2nc3c1nc(O)n3Cc1ccccc1OCCCCO2 [Compound 76]	0.12 µM	0.064 µM	
Nc1nc2nc3c1nc(O)n3Cc1cccc(c1)CCCCCC(CO)N2 (centres unmarked) [Compound 10]	5.26 µM	0.53 µM	
Nc1nc2nc3c1nc(O)n3Cc1cc(ccn1)OCCCCCO2 [Compound 58]	0.63 µM	0.086 µM	
Nc1nc2nc3c1nc(O)n3Cc1cccc(n1)OCC(=O)NCCCO2 [Compound 9]	0.30 µM	0.098 µM	
Nc1nc2nc3c1nc(O)n3Cc1cccc(c1)C/C=C/CCC(CO)N2 (centres unmarked) [Compound 7]	0.87 µM	0.31 µM	
COc1ccc2cc1Cn1c(O)nc3c(N)nc(nc31)OCCCCC2 [Compound 69]	0.2 µM	0.039 µM	
Nc1nc2nc3c1nc(O)n3Cc1ccc(F)c(c1)OC/C=C\CN2 [Compound 89]	0.4 µM		
Nc1nc2nc3c1nc(O)n3CCc1cccc(c1)C/C=C/CCO2 [Compound 82]	3.95 µM		
Nc1nc2nc3c1nc(O)n3Cc1ccc(F)c(c1)OC/C=C/CN2 [Compound 90]	0.063 µM		
Nc1nc2nc3c1nc(O)n3Cc1ccc(F)c(c1)OCCCCO2 [Compound 91]	0.14 µM		
